Consider four molecules from patent US7026309B2, “Fused bicyclic pyridine derivative as tachykinin receptor antagonist” (Kyorin Pharmaceutical Co., Ltd., priority 2002, dated 2006).

For one assay, the target named is T1, NK1 receptor (Cavia porcellus, UniProt P30547).
T1 construct: from tissue; host or cells: isolated guinea pig ileum
The experiment in a line: Test for NK1 receptor antagonist: substance P concentration-response in isolated guinea pig ileum, Schild analysis. In kind it is cell-based. Conditions: substance P as agonist, 10 min pretreatment, method of Schild. The method, then:
(1) Test for NK1 Receptor Antagonist
The method used was according to the method proposed by S. Dion et al. (Dion et al., Life Sciences 41(1987): 2269), to which minor modifications were made.
Guinea pigs were stunned by a blow on the head and were exsanguinated from the carotid artery and ilea were isolated. The ileum was mounted in an organ bath containing Tyrode's solution which was maintained at 32° C. and gased with 95% O2 and 5% CO2. The ileum was subjected to a resting tension of 1-gram and allowed to equilibrate for 20 minutes before the experiment was started. As a control, a concentration-response curve for substance P in the absence of any of test compounds was used. The NK1 receptor antagonist activity of each test compound was determined by a concentration-response curve obtained by pretreating at least three concentrations of the test compound for 10 minutes and subsequently applying substance P in a cumulative manner. The Kb values were determined according to the method of Schild and the results are shown in Table 1 (Schild Brit. J. Pharmacol. 14(1959): 48).
The composition of the Tyrode's solution was as follows: NaCl=136.9, KCl=2.7, CaCl2.2H2O=2.5, MgCl2.6H2O=1.0, NaH2PO4.2H2O=0.4, NaHCO3=11.9, glucose=11.1 (mmol/L).

Assay [1] relates to effective bladder capacity. The experiment in a line: Cystometry test on guinea pigs with cut spinal cord. In kind it is in vivo. Conditions: guinea pig. The text has this:
(2) Cystometry Test on Guinea Pigs
The method used was according to the method proposed by JS. Peterson et al. (Peterson J S. et al., J. Pharmacol. Methods 21(1989): 231), to which minor modifications were made.
Guinea pigs were anesthetized with halothane and the tenth thoracic spinal cord was cut in each animal. Subsequently, both ureters were ligated and were cut on the kidney-side. Polyethylene catheters were inserted into the bladder to provide an injection pathway for physiological saline and a pathway for the measurement of intravesical pressure. Each animal was restricted in a Ballman cage and was left for more than 2 hours. Subsequently, room-temperature saline was injected through the bladder catheter into the bladder at a rate of 6 mL/hr to conduct a cystometry test. Once the effective bladder capacity was stabilized, a test compound was intravenously administered into the jugular vein. The effective bladder capacity is defined as the volume of saline injected from one urination to the next. The effect of each test compound was determined as the increase in the average bladder volume, which was determined based on the average bladder volume measured 30 minutes prior to the administration of the test compound and the average bladder volume measured every 30 minutes after the administration of the test compound.

Structures are written as SMILES.

T1 sequence (P30547 whole entry): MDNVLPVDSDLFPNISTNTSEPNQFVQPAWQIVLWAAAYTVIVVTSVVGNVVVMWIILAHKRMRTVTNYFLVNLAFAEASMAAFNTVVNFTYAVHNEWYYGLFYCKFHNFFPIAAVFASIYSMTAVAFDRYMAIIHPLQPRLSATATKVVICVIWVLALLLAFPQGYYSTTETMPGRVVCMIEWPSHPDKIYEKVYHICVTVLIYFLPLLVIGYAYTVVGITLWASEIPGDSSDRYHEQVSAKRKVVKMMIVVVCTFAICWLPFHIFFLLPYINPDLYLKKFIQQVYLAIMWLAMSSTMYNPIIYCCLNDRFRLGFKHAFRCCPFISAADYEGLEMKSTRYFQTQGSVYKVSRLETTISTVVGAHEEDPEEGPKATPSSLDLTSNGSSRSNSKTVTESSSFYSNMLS

Take `CC(=O)N1CCN(c2cc(-c3ccccc3C)c3c(n2)OCCCN(Cc2cc(C(F)(F)F)cc(C(F)(F)F)c2)C3=O)CC1` [Example 1, 9-(4-acetylpiperazine-1-yl)-5-[3,5-bis(trifluoromethyl)benzyl]-7-(2-methylphenyl)-6-oxo-2,3,4,5-tetrahydro-6H-pyrido[2,3-b][1,5]oxazocine]: the Kb on NK1 receptor was 0.0888 nM. Besides, the “Increase in bladder capacity (%)” value in assay [1] (0.3 mg/kg i.v.) turned out to be 32.2%.

`CC(=O)N1CCN(c2cc(-c3ccc(F)cc3)c3c(n2)OCCCN(Cc2cc(C(F)(F)F)cc(C(F)(F)F)c2)C3=O)CC1` [Example 2, 9-(4-acetylpiperazine-1-yl)-5-[3,5-bis(trifluoromethyl)benzyl]-7-(4-fluorophenyl)-6-oxo-2,3,4,5-tetrahydro-6H-pyrido[2,3-b][1,5]oxazocine]: the Kb at NK1 receptor worked out at 0.0847 nM.

For `CC(=O)N1CCCN(c2cc(-c3ccccc3C)c3c(n2)OCCCN(Cc2cc(C(F)(F)F)cc(C(F)(F)F)c2)C3=O)CC1` [Example 6, 9-(4-acetylhomopiperazine-1-yl)-5-[3,5-bis(trifluoromethyl)benzyl]-7-(2-methylphenyl)-6-oxo-2,3,4,5-tetrahydro-6H-pyrido[2,3-b][1,5]oxazocine], at NK1 receptor, the Kb is 0.294 nM.

For `Cc1ccc(-c2c3n(c(=O)c4ncccc24)CC[C@@H](C)CN(Cc2cc(C(F)(F)F)cc(C(F)(F)F)c2)C3=O)cc1` [TAK-637], the Kb at NK1 receptor was 0.269 nM. For the same molecule, the “Increase in bladder capacity (%)” value in assay [1] (0.3 mg/kg i.v.) is 12.0%; in assay [1] (1 mg/kg i.v.), 23.8%; in assay [1] (3 mg/kg i.v.), 20.5%.

As usually defined, the Kb is the affinity of an antagonist, worked out from how it opposes an agonist.
